Target: T1, mouse OR-I7 (Mus musculus, UniProt Q9QWU6)
T1 sequence (Q9QWU6 1-327): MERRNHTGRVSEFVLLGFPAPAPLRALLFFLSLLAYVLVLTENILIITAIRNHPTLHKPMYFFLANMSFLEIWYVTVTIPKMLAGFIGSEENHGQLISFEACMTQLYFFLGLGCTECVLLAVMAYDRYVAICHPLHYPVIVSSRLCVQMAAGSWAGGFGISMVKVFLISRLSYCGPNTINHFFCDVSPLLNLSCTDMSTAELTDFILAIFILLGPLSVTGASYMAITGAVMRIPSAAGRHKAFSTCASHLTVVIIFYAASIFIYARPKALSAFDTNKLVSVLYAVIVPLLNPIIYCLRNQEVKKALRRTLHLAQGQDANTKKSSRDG
Test: GloSensor cAMP assay in Hana3A cells expressing recombinant receptor
Type: cell-based

EC50 | Compound
~1.5 µM | CCCCCCCC=O [compound 1, octanal]
~10 µM | CCCCCCC(F)(F)C=O [compound 2, 2,2-difluorooctanal]

— paper PMC4245160 (ACS Chemical Biology, 2014)
